Test results published in patent publication US8022055B2, “Betulinic acid derivatives” (Dabur Pharma Limited, priority 2005, dated 2011).

How the values were obtained:
NIH 3T3 cells = experiment: NIH3T3 cytotoxicity test (72 h MTT assay); type: cell-based; details: NIH3T3, 72 hours; for IC50: Mus musculus, read-out: IC50 for cell lines NIH3T3
Experimental: The cytotoxic effect of chemicals upon NIH 3T3 cells in culture is measured by cell metabolism determination using the previously described MIT assay. Healthy NIH 3T3 cells (an established cell-line), when maintained in culture continuously divide and multiply over time. The basis of this test is that a cytotoxic chemical (regardless of site or mechanism of action) will interfere with this process and, thus, result in a reduction of the growth rate as reflected by cell number. The degree of inhibition of growth, related to the concentration of the test compound, provides an indication of toxicity.
The NIH 3T3 cells are maintained in culture and exposed to test compounds over a range of concentrations and the number of viable cells determined after 72 hours exposure by MIT assay. The number of cells in the presence of test chemicals are compared to that observed in control cultures and the percent inhibition of growth calculated. The IC50 concentration (i.e. the concentration producing 50% inhibition of growth) is determined and expressed as μg/ml. A ratio of IC50 of NIH 3T3 cells to tumor cells is an indicator of predicted toxicity of the molecule and is represented as “Safety Index”. The higher the value, the better is the predicted safety of the molecule.

A549 = experiment: three day MTT cytotoxicity assay, A549; type: cell-based, human; details: for IC50 for cell lines A549 / IC50: A549, 72 hours, MTT; for Specific Index (SI) for cell lines A549: ratio of IC50 of NIH 3T3 cells to A549; for IC50: Homo sapiens, read-out: IC50 for cell lines A549
Experimental: (§1) A number of compounds listed in Table-3 were tested for cytotoxicity against prostate, lung, laryngeal, pancreas, breast, colon and ovarian cancer, leukemia and lymphoma, human tumor cell lines. Briefly, a three day MTT cytotoxicity assay was performed, which is based on the principle of uptake of MTT (3-(4,5-dimethylthiazol-2-yl)-2,5-diphenyl tetrazolium bromide), a tetrazolium salt, by the metabolically active cells where it is metabolized by active mitochondria into a blue colored formazan product that is read spectrophotometrically. MIT was dissolved in phosphate buffered saline with a pH of 7.4 to obtain an MIT concentration of 5 mg/ml; the resulting mixture was filtered through a 0.22-micron filter to sterilize and remove a small amount of insoluble residue. For each type of tumor cell, 10,000 to 15,000 cells were seeded in a 96-well culture plate and incubated with the individual betulinic acid derivatives in a CO2 incubator for a total of 72 hours. Control cells not treated with the betulinic acid derivatives were similarly incubated. The assay was terminated by adding 100 μg (20 μl) of MIT to each well then incubating for additional one hour, and finally adding 50 μl of 10% SDS-0.01N HCl to each well to lyse the cells and dissolve formazan. After incubating for one hour, the plate was read spectrophotometrically at 540 nm and the percentage of cytotoxicity calculated using the following formula: Cytotoxicity percentage=100×[1−(X/R1)], where X=(absorbance of treated sample at 540 nm)−(absorbance of blank at 540 nm) R1=absorbance of control sample at 540 nm. The IC50 Values of the cytotoxicity defined as the concentration at which 50% of the cells are killed in vitro was calculated for each cell line treated with each of the betulinic acid derivatives.

PA1 = experiment: three day MTT cytotoxicity assay, PA1; type: cell-based, human; details: for IC50 for cell lines PA1: PA1, 72 hours; for IC50: Homo sapiens, PA-1, PA1, 72 hours, read-out: IC50 for cell lines PA1
Experimental: (§2) Briefly, a three day MTT cytotoxicity assay was performed, which is based on the principle of uptake of MTT (3-(4,5-dimethylthiazol-2-yl)-2,5-diphenyl tetrazolium bromide), a tetrazolium salt, by the metabolically active cells where it is metabolized by active mitochondria into a blue colored formazan product that is read spectrophotometrically. MIT was dissolved in phosphate buffered saline with a pH of 7.4 to obtain an MIT concentration of 5 mg/ml; the resulting mixture was filtered through a 0.22-micron filter to sterilize and remove a small amount of insoluble residue. For each type of tumor cell, 10,000 to 15,000 cells were seeded in a 96-well culture plate and incubated with the individual betulinic acid derivatives in a CO2 incubator for a total of 72 hours. Control cells not treated with the betulinic acid derivatives were similarly incubated. The assay was terminated by adding 100 μg (20 μl) of MIT to each well then incubating for additional one hour, and finally adding 50 μl of 10% SDS-0.01N HCl to each well to lyse the cells and dissolve formazan. After incubating for one hour, the plate was read spectrophotometrically at 540 nm and the percentage of cytotoxicity calculated using the following formula: Cytotoxicity percentage=100×[1−(X/R1)], where X=(absorbance of treated sample at 540 nm)−(absorbance of blank at 540 nm) R1=absorbance of control sample at 540 nm. The IC50 Values of the cytotoxicity defined as the concentration at which 50% of the cells are killed in vitro was calculated for each cell line treated with each of the betulinic acid derivatives.

Miapaca = experiment: three day MTT cytotoxicity assay, Miapaca; type: cell-based, human; details: for IC50 for cell lines Miapaca / IC50: 72 hours, MTT, Miapaca; for Specific Index (SI) for cell lines Miapaca: ratio of IC50 of NIH 3T3 cells to Miapaca; for IC50: Homo sapiens, MIA PaCa-2, read-out: IC50 for cell lines Miapaca
Experimental: as §1

K562 = experiment: three day MTT cytotoxicity assay, K562; type: cell-based, human; details: for IC50 for cell lines K562 / IC50: K562, 72 hours, MTT; for Specific Index (SI) for cell lines K562: ratio of IC50 of NIH 3T3 cells to K562; for IC50: Homo sapiens, read-out: IC50 for cell lines K562
Experimental: as §1

HBL100 = experiment: three day MTT cytotoxicity assay, HBL100; type: cell-based, human; details: for IC50 for cell lines HBL100 / IC50: HBL100, 72 hours, MTT; for Specific Index (SI) for cell lines HBL100: ratio of IC50 of NIH 3T3 cells to HBL100; for IC50: Homo sapiens, HBL-100, read-out: IC50 for cell lines HBL100
Experimental: as §1

SW620 = experiment: three day MTT cytotoxicity assay, SW620; type: cell-based, human; details: for IC50 for cell lines SW620: SW620, 72 hours; for IC50: Homo sapiens, SW-620, SW620, 72 hours, read-out: IC50 for cell lines SW620
Experimental: as §2

DU145 = experiment: three day MTT cytotoxicity assay, DU145; type: cell-based, human; details: for IC50 for cell lines DU145: DU145, 72 hours; for IC50: Homo sapiens, DU-145, DU145, 72 hours, read-out: IC50 for cell lines DU145
Experimental: as §1

Row | SMILES | IC50 for cell lines NIH3T3 (NIH 3T3 cells) | IC50 for cell lines A549 (A549) | Specific Index (SI) for cell lines A549 (A549) | IC50 for cell lines PA1 (PA1) | IC50 for cell lines Miapaca (Miapaca) | Specific Index (SI) for cell lines Miapaca (Miapaca) | IC50 for cell lines K562 (K562) | Specific Index (SI) for cell lines K562 (K562) | IC50 for cell lines HBL100 (HBL100) | Specific Index (SI) for cell lines HBL100 (HBL100) | IC50 for cell lines SW620 (SW620) | IC50 for cell lines DU145 (DU145) | IC50 (NIH 3T3 cells) | IC50 (A549) | IC50 (PA1) | IC50 (Miapaca) | IC50 (K562) | IC50 (HBL100) | IC50 (SW620) | IC50 (DU145)
1 | C=C(C)[C@@H]1CC[C@]2(C(=O)O)CC[C@]3(C)[C@H](CC[C@@H]4[C@@]5(C)Cc6c([nH]c7c(Cl)cccc67)C(C)(C)[C@@H]5CC[C@]43C)[C@@H]12 [Compound 9, 7′-Chloro-2,3-didehydroindolo[2′,′:2,3]betulinic acid] | 11.8 ± 0.19 µg/mL | 8.7 ± 0.19 µg/mL | 1.356 | 6.39 µg/mL | 11.6 ± 0.49 µg/mL | 1.017 | 9.26 ± 1.6 µg/mL | 1.274 | 11.8 ± 0.35 µg/mL | 1 | 2.008 µg/mL | 11.66 µg/mL | – | – | – | – | – | – | – | –
2 | C=C(C)[C@@H]1CC[C@]2(C(=O)O)CC[C@]3(C)[C@H](CC[C@@H]4[C@@]5(C)Cc6c([nH]c7ccc(OC)cc67)C(C)(C)[C@@H]5CC[C@]43C)[C@@H]12 [Compound 10, 2,3-Didehydro-5′-methoxyindolo[2′,′:2,3]betulinic acid] | 7.5 ± 0.48 µg/mL | 8.2 ± 0.14 µg/mL | 0.915 | 5.8 µg/mL | 6.4 ± 0.44 µg/mL | 1.172 | >20 µg/mL | <0.38 | 12.8 ± 0.39 µg/mL | 0.586 | 8.4 µg/mL | 5.75 µg/mL | – | – | – | – | – | – | – | –
3 | C=C(C)[C@@H]1CC[C@]2(C(=O)O)CC[C@]3(C)C(CCC4[C@@]5(C)Cc6c(oc7ccccc67)C(C)(C)C5CC[C@]43C)C12 (some centres unmarked) [Compound 11, 2,3-Didehydrobenzfurano[2′,3′:2,3]betulinic acid] | 19.03 ± 0.79 µg/mL | >20 µg/mL | <0.952 | >20 µg/mL | >20 µg/mL | <0.952 | >20 µg/mL | <0.952 | >20 µg/mL | <0.952 | >20 µg/mL | >20 µg/mL | – | – | – | – | – | – | – | –
4 | C=C(C)[C@@H]1CC[C@]2(C(=O)OCc3ccccc3)CC[C@]3(C)C(CCC4[C@@]5(C)Cc6c([nH]c7ccccc67)C(C)(C)C5CC[C@]43C)C12 (some centres unmarked) [Compound 15, 28-O-Benzyl-2,3-didehydro[2′,3′:2,3]indolobetulinate] | >20 µg/mL | >20 µg/mL | – | >20 µg/mL | >20 µg/mL | – | >20 µg/mL | – | >20 µg/mL | – | >20 µg/mL | >20 µg/mL | – | – | – | – | – | – | – | –
5 | CC(C)[C@@H]1CC[C@]2(C(=O)OCc3ccccc3)CC[C@]3(C)C(CCC4[C@@]5(C)Cc6c([nH]c7ccccc67)C(C)(C)C5CC[C@]43C)C12 (some centres unmarked) [Compound 16, 28-O-Benzyl-2,3-didehydro-20,29-dihydro[2′,3′:2,3]indolobetulinate] | >20 µg/mL | >20 µg/mL | – | >20 µg/mL | >20 µg/mL | – | >20 µg/mL | – | >20 µg/mL | – | >20 µg/mL | >20 µg/mL | – | – | – | – | – | – | – | –
6 | C=CCOC(=O)[C@]12CC[C@@H](C(=C)C)C1C1CCC3[C@@]4(C)Cc5c([nH]c6ccccc56)C(C)(C)C4CC[C@@]3(C)[C@]1(C)CC2 (some centres unmarked) [Compound 18, 28-O-Allyl-2,3-didehydroindolo[2′,3′:2,3]betulinate] | >20 µg/mL | >20 µg/mL | – | >20 µg/mL | >20 µg/mL | – | >20 µg/mL | – | >20 µg/mL | – | >20 µg/mL | >20 µg/mL | – | – | – | – | – | – | – | –
7 | C=C(C)[C@@H]1CC[C@]2(C(=O)OCc3ccccc3)CC[C@]3(C)C(CCC4[C@@]5(C)Cc6c([nH]c7ccc(Cl)cc67)C(C)(C)C5CC[C@]43C)C12 (some centres unmarked) [Compound 19, 28-O-Benzyl-5′-chloro-2,3-didehydroindolo[2′,′:2,3]betulinate] | >20 µg/mL | >20 µg/mL | – | >20 µg/mL | >20 µg/mL | – | >20 µg/mL | – | >20 µg/mL | – | >20 µg/mL | >20 µg/mL | – | – | – | – | – | – | – | –
8 | C=C(C)[C@@H]1CC[C@]2(C(=O)NCC(=O)OC)CC[C@]3(C)C(CCC4[C@@]5(C)Cc6c([nH]c7ccccc67)C(C)(C)C5CC[C@]43C)C12 (some centres unmarked) [Compound 21, 28-N-Methylglycinate-2,3-didehydroindolo[2′,3′:2,3]betulinamide] | – | – | – | – | – | – | – | – | – | – | – | – | > 20 µg/mL | > 20 µg/mL | > 20 µg/mL | > 20 µg/mL | > 20 µg/mL | > 20 µg/mL | > 20 µg/mL | > 20 µg/mL
9 | C=C(C)[C@@H]1CC[C@]2(C(=O)NCC(=O)O)CC[C@]3(C)[C@H](CC[C@@H]4[C@@]5(C)Cc6c([nH]c7ccccc67)C(C)(C)[C@@H]5CC[C@]43C)[C@@H]12 [Compound 22, 28-N-Glycine-2,3-didehydroindolo[2′,3′:2,3]betulinamide] | 0.68 ± 0.003 µg/mL | 3.53 ± 0.82 µg/mL | – | 3.0 µg/mL | 0.67 ± 0.03 µg/mL | 1.015 | 11.92 ± 1.37 µg/mL | 0.057 | >20 µg/mL | <0.034 | 8.7 µg/mL | 7.0 µg/mL | – | – | – | – | – | – | – | –
10 | C=C(C)[C@@H]1CC[C@]2(C(=O)NCC(=O)OC)CC[C@]3(C)C(CCC4[C@@]5(C)Cc6c([nH]c7ccc(Cl)cc67)C(C)(C)C5CC[C@]43C)C12 (some centres unmarked) [Compound 23, 28-N-Methylglycinate-5′-chloro-2,3-didehydroindolo[2′,3′:2,3]betulinamide] | – | – | – | – | – | – | – | – | – | – | – | – | > 20 µg/mL | > 20 µg/mL | > 20 µg/mL | > 20 µg/mL | > 20 µg/mL | > 20 µg/mL | > 20 µg/mL | > 20 µg/mL
11 | C=C(C)[C@@H]1CC[C@]2(C(=O)NCC(=O)O)CC[C@]3(C)C(CCC4[C@@]5(C)Cc6c([nH]c7ccc(Cl)cc67)C(C)(C)C5CC[C@]43C)C12 (some centres unmarked) [Compound 24, 28-N-Glycine-5′-chloro-2,3-didehydroindolo[2′,3′:2,3]betulinamide] | 11.2 ± 0.63 µg/mL | 12.4 ± 1.78 µg/mL | 0.903 | 6.66 µg/mL | 10.7 ± 0.63 µg/mL | 1.047 | >20 µg/mL | <0.56 | 16.5 ± 0.6 µg/mL | 0.679 | 10.42 µg/mL | 10.32 µg/mL | – | – | – | – | – | – | – | –
